# Patent US12281149B2, “Modulators of G-protein coupled receptors” (priority 2021, dated 2025)
# pEC50: −log10 of the molar value. *1 amine or outer side, *2 acyl side, *3 side chain or, on linkers, in order; H or OH if unused. Where a SMILES comes first, the peptide text is derived from it. Side-chain parts run from the residue outwards. [ ]: non-standard residue; d: D form. The star is where a group is joined. Isobutyryl(2-(3-CN-5-F-Ph)) = CC(C)(C(=O)*)c1cc(F)cc(C#N)c1; β2hLeu(2S) = CC(C)C[C@@H](CN[*:1])C(=O)[*:2]; C20 diacid = O=C(O)CCCCCCCCCCCCCCCCCCC(=O)*; γGlu = O=C(O)[C@H](CCC(=O)[*:2])N[*:1]; X32 = CC(C)(CN[*:1])C(=O)[*:2]; Dap = NC[C@H](N)C(=O)O; AEEA = NCCOCCOCC(=O)O; Aib = CC(C)(N)C(=O)O; βAla = NCCC(=O)O
# Experiments:
# Assay type in all cases: cell-based
# GIP receptor [1] = molecular target: T1, GIP receptor (Homo sapiens, UniProt P48546); assay: HitHunter cAMP assay, GIP receptor; settings: for pEC50: CHO cells stably expressing GIP receptor, cAMP accumulation, 30 min, read-out: EC50 GIP-1R; for Emax: CHO cells, cAMP, normalized to maximum signal from GIP (high) and DMSO (low), read-out: Emax GIP-1R
# T1 sequence (P48546 22-466): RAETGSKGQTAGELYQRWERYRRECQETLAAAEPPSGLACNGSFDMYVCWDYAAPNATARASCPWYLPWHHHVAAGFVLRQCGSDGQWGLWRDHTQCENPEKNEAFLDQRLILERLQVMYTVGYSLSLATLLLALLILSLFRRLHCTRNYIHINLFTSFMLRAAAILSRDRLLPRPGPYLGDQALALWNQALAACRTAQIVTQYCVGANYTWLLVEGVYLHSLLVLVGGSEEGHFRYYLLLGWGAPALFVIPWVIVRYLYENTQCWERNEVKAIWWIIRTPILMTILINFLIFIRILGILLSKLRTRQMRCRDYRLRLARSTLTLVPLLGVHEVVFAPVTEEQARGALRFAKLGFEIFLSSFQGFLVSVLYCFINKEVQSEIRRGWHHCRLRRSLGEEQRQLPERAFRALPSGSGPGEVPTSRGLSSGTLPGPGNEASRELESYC
# GIP receptor [2] = molecular target: T1, GIP receptor; assay: PathHunter β-arrestin assay, GIP receptor; set-up: host or cells: PathHunter CHO-K1 GIPR β-Arrestin Cell Line; settings: β-arrestin-2 recruitment, PathHunter CHO-K1 GIPR β-Arrestin Cell Line, 90 min at 37° C.; normalized to GIP; read-out: GIPR β Arrestin EC50
# GLP-1 receptor [3] = molecular target: T2, GLP-1 receptor (Homo sapiens, UniProt P43220); assay: HitHunter cAMP assay, GLP-1 receptor; settings: for pEC50: CHO cells stably expressing human GLP-1 receptor, cAMP accumulation, 30 min, read-out: EC50 GLP-1R; for Emax: CHO cells, cAMP, normalized to maximum signal from GLP-1 (high) and DMSO (low), read-out: Emax GLP-1R
# T2 sequence (P43220 24-463): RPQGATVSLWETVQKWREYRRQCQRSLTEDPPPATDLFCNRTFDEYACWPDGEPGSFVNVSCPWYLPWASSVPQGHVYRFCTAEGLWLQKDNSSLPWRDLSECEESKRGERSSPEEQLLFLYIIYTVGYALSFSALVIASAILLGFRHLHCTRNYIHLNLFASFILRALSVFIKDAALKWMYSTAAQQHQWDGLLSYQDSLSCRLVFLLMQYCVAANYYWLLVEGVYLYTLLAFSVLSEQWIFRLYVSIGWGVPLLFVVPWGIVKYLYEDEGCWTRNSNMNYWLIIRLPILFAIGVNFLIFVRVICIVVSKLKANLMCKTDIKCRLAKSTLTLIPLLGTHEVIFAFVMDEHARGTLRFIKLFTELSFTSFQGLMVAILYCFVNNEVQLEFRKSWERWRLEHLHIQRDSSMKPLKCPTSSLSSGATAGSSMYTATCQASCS
# GLP-1 receptor [4] = molecular target: T2, GLP-1 receptor; assay: PathHunter β-arrestin assay, GLP-1 receptor; set-up: host or cells: PathHunter CHO-K1 GLP1R β-Arrestin Cell Line; settings: β-arrestin-2 recruitment, PathHunter CHO-K1 GLP1R β-Arrestin Cell Line, 90 min at 37° C.; normalized to GLP-1; read-out: GLP-1R β Arrestin EC50
SMILES,pEC50 (GIP receptor [1]),Emax (GIP receptor [1]) [%],pEC50 (GIP receptor [2]),pEC50 (GLP-1 receptor [3]),Emax (GLP-1 receptor [3]) [%],pEC50 (GLP-1 receptor [4])
CC[C@H](C)[C@H](NC(=O)[C@H](CCCCN)NC(=O)[C@H](CC(=O)O)NC(=O)[C@H](CC(C)C)NC(=O)[C@H](Cc1ccc(O)cc1)NC(=O)[C@@H](NC(=O)[C@H](CO)NC(=O)[C@H](Cc1ccc(O)cc1)NC(=O)[C@H](CC(=O)O)NC(=O)[C@H](CO)NC(=O)[C@@H](NC(=O)[C@H](Cc1ccccc1)NC(=O)[C@@H](NC(=O)CNC(=O)[C@H](CCC(=O)O)NC(=O)CCNC(=O)C(C)(C)c1cc(F)cc(C#N)c1)[C@@H](C)O)[C@@H](C)O)[C@@H](C)CC)C(=O)N[C@@H](C)C(=O)N[C@@H](CCC(N)=O)C(=O)N[C@@H](CCCCNC(=O)COCCOCCNC(=O)COCCOCCNC(=O)CC[C@H](NC(=O)CCCCCCCCCCCCCCCCCCC(=O)O)C(=O)O)C(=O)N[C@@H](C)C(=O)N[C@@H](Cc1ccccc1)C(=O)N[C@H](C(=O)N[C@@H](CCC(N)=O)C(=O)N[C@@H](Cc1c[nH]c2ccccc12)C(=O)N[C@@H](CC(C)C)C(=O)N[C@H](C(=O)N[C@@H](C)C(=O)NCC(=O)NCC(=O)N1CCC[C@H]1C(=O)N[C@@H](CO)C(=O)N[C@@H](CO)C(=O)NCC(=O)N[C@@H](C)C(=O)N1CCC[C@H]1C(=O)N1CCC[C@H]1C(=O)N1CCC[C@H]1C(=O)N[C@@H](CO)C(N)=O)[C@@H](C)CC)C(C)C [Compound 189] ({Isobutyryl(2-(3-CN-5-F-Ph))-βAla}-EGTFTSDYSIYLDKIAQK([AEEA-AEEA-γGlu-C20 diacid])AFVQWLIAGGPSSGAPPPS-NH2),7.00 to 8.00,93,< 6.00,9.00 to 10.00,95,< 6.00
CC[C@H](C)[C@H](NC(=O)[C@H](CCCCN)NC(=O)[C@H](CC(=O)O)NC(=O)[C@H](CC(C)C)NC(=O)C(C)(C)NC(=O)[C@@H](NC(=O)[C@H](CO)NC(=O)[C@H](Cc1ccc(O)cc1)NC(=O)[C@H](CC(=O)O)NC(=O)[C@H](CO)NC(=O)[C@@H](NC(=O)[C@H](Cc1ccccc1)NC(=O)[C@@H](NC(=O)CNC(=O)[C@H](CCC(=O)O)NC(=O)CCNC(=O)C(C)(C)c1cc(F)cc(C#N)c1)[C@@H](C)O)[C@@H](C)O)[C@@H](C)CC)C(=O)N[C@@H](C)C(=O)N[C@@H](CCC(N)=O)C(=O)N[C@@H](CCCCNC(=O)COCCOCCNC(=O)COCCOCCNC(=O)CC[C@H](NC(=O)CCCCCCCCCCCCCCCCCCC(=O)O)C(=O)O)C(=O)N[C@@H](C)C(=O)N[C@@H](Cc1ccccc1)C(=O)N[C@H](C(=O)N[C@@H](CCC(N)=O)C(=O)N[C@@H](Cc1c[nH]c2ccccc12)C(=O)N[C@@H](CC(C)C)C(=O)N[C@@H](CC(C)C)C(=O)N[C@@H](C)C(=O)NCC(=O)NCC(=O)N1CCC[C@H]1C(=O)N[C@@H](CO)C(=O)N[C@@H](CO)C(=O)NCC(=O)N[C@@H](C)C(=O)N1CCC[C@H]1C(=O)N1CCC[C@H]1C(=O)N1CCC[C@H]1C(=O)N[C@@H](CO)C(N)=O)C(C)C [Compound 190] ({Isobutyryl(2-(3-CN-5-F-Ph))-βAla}-EGTFTSDYSI[Aib]LDKIAQK([AEEA-AEEA-γGlu-C20 diacid])AFVQWLLAGGPSSGAPPPS-NH2),8.00 to 9.00,100,< 6.00,8.00 to 9.00,98,< 6.00
CC[C@H](C)[C@H](NC(=O)[C@H](CC(C)C)NC(=O)[C@H](Cc1c[nH]c2ccccc12)NC(=O)[C@H](CCC(N)=O)NC(=O)[C@@H](NC(=O)[C@H](Cc1ccccc1)NC(=O)[C@H](C)NC(=O)[C@H](CCCCNC(=O)COCCOCCNC(=O)COCCOCCNC(=O)CC[C@H](NC(=O)CCCCCCCCCCCCCCCCCCC(=O)O)C(=O)O)NC(=O)[C@H](CCC(N)=O)NC(=O)[C@H](C)NC(=O)[C@@H](NC(=O)[C@H](CCCCN)NC(=O)[C@H](CC(=O)O)NC(=O)[C@H](CC(C)C)NC(=O)C(C)(C)NC(=O)[C@@H](NC(=O)[C@H](CO)NC(=O)[C@H](Cc1ccc(O)cc1)NC(=O)[C@H](CC(=O)O)NC(=O)[C@H](CO)NC(=O)[C@@H](NC(=O)[C@H](Cc1ccccc1)NC(=O)[C@@H](NC(=O)CNC(=O)[C@H](CCC(=O)O)NC(=O)[C@@H](N)CNC(=O)C(C)(C)c1cc(F)cc(C#N)c1)[C@@H](C)O)[C@@H](C)O)[C@@H](C)CC)[C@@H](C)CC)C(C)C)C(=O)N[C@@H](C)C(=O)NCC(=O)NCC(=O)N1CCC[C@H]1C(=O)N[C@@H](CO)C(=O)N[C@@H](CO)C(=O)NCC(=O)N[C@@H](C)C(=O)N1CCC[C@H]1C(=O)N1CCC[C@H]1C(=O)N1CCC[C@H]1C(=O)N[C@@H](CO)C(N)=O [Compound 191] (H-[Dap](Isobutyryl(2-(3-CN-5-F-Ph)))EGTFTSDYSI[Aib]LDKIAQK([AEEA-AEEA-γGlu-C20 diacid])AFVQWLIAGGPSSGAPPPS-NH2),7.00 to 8.00,98,< 6.00,8.00 to 9.00,92,< 6.00
CC[C@H](C)[C@H](NC(=O)[C@H](CC(C)C)NC(=O)[C@H](Cc1c[nH]c2ccccc12)NC(=O)[C@H](CCC(N)=O)NC(=O)[C@@H](NC(=O)[C@H](Cc1ccccc1)NC(=O)[C@H](C)NC(=O)[C@H](CCCCNC(=O)COCCOCCNC(=O)COCCOCCNC(=O)CC[C@H](NC(=O)CCCCCCCCCCCCCCCCCCC(=O)O)C(=O)O)NC(=O)[C@H](CCC(N)=O)NC(=O)[C@H](C)NC(=O)[C@@H](NC(=O)[C@H](CCCCN)NC(=O)[C@H](CC(=O)O)NC(=O)[C@H](CC(C)C)NC(=O)C(C)(C)NC(=O)[C@@H](NC(=O)[C@H](CO)NC(=O)[C@H](Cc1ccc(O)cc1)NC(=O)[C@H](CC(=O)O)NC(=O)[C@H](CO)NC(=O)[C@@H](NC(=O)[C@H](Cc1ccccc1)NC(=O)[C@@H](NC(=O)CNC(=O)[C@H](CCC(=O)O)NC(=O)C(C)(C)CNC(=O)C(C)(C)c1cc(F)cc(C#N)c1)[C@@H](C)O)[C@@H](C)O)[C@@H](C)CC)[C@@H](C)CC)C(C)C)C(=O)N[C@@H](C)C(=O)NCC(=O)NCC(=O)N1CCC[C@H]1C(=O)N[C@@H](CO)C(=O)N[C@@H](CO)C(=O)NCC(=O)N[C@@H](C)C(=O)N1CCC[C@H]1C(=O)N1CCC[C@H]1C(=O)N1CCC[C@H]1C(=O)N[C@@H](CO)C(N)=O [Compound 192] ({Isobutyryl(2-(3-CN-5-F-Ph))}-[X32]EGTFTSDYSI[Aib]LDKIAQK([AEEA-AEEA-γGlu-C20 diacid])AFVQWLIAGGPSSGAPPPS-NH2),8.00 to 9.00,104,< 6.00,9.00 to 10.00,101,< 6.00
CC[C@H](C)[C@H](NC(=O)[C@H](CC(C)C)NC(=O)[C@H](Cc1c[nH]c2ccccc12)NC(=O)[C@H](CCC(N)=O)NC(=O)[C@@H](NC(=O)[C@H](Cc1ccccc1)NC(=O)[C@H](C)NC(=O)[C@H](CCCCNC(=O)COCCOCCNC(=O)COCCOCCNC(=O)CC[C@H](NC(=O)CCCCCCCCCCCCCCCCCCC(=O)O)C(=O)O)NC(=O)[C@H](CCC(N)=O)NC(=O)[C@H](C)NC(=O)[C@@H](NC(=O)[C@H](CCCCN)NC(=O)[C@H](CC(=O)O)NC(=O)[C@H](CC(C)C)NC(=O)C(C)(C)NC(=O)[C@@H](NC(=O)[C@H](CO)NC(=O)[C@H](Cc1ccc(O)cc1)NC(=O)[C@H](CC(=O)O)NC(=O)[C@H](CO)NC(=O)[C@@H](NC(=O)[C@H](Cc1ccccc1)NC(=O)[C@@H](NC(=O)CNC(=O)[C@H](CCC(=O)O)NC(=O)[C@H](CNC(=O)C(C)(C)c1cc(F)cc(C#N)c1)CC(C)C)[C@@H](C)O)[C@@H](C)O)[C@@H](C)CC)[C@@H](C)CC)C(C)C)C(=O)N[C@@H](C)C(=O)NCC(=O)NCC(=O)N1CCC[C@H]1C(=O)N[C@@H](CO)C(=O)N[C@@H](CO)C(=O)NCC(=O)N[C@@H](C)C(=O)N1CCC[C@H]1C(=O)N1CCC[C@H]1C(=O)N1CCC[C@H]1C(=O)N[C@@H](CO)C(N)=O [Compound 193] ({Isobutyryl(2-(3-CN-5-F-Ph))}-[β2hLeu(2S)]EGTFTSDYSI[Aib]LDKIAQK([AEEA-AEEA-γGlu-C20 diacid])AFVQWLIAGGPSSGAPPPS-NH2),6.00 to 7.00,70,< 6.00,7.00 to 8.00,77,< 6.00
